In patent US11760722B2 (priority 2022, dated 2023):
Values joined by “and” are separate entries in the source; they are usually repeats but may differ in a detail not shown here. Equal entries are not always repeated. Where two headings read alike, the source gives them in different places.

Legend:
COVID-19 WT Mpro = biological target: T1, COVID-19 WT Mpro (Severe acute respiratory syndrome coronavirus 2, UniProt P0DTD1); assay: biochemical; settings: WT Mpro 25 nM, substrate 25 μM, 30 min pre-incubation; several values in a cell = repeat determinations
T1 construct: The C-His6-tagged COVID-19 WT Mpro (NC_045512); His6 (C); host or cells: E. coli

SARS-CoV-2 replicon = assay: microbe, parasite or virus in culture; type: cell-based; settings: read-out: Replicon EC50
[1] = system: human coronavirus (HCoV) 229E; assay: microbe, parasite or virus in culture; type: cell-based, human coronavirus 229E; settings: unidentified human coronavirus, 72 h, MRCS cells, HCoV 229E, 3 days, CellTiter Glo; read-out: 229E CPE EC50
[2] = Severe acute respiratory syndrome coronavirus 2, Huh-7, 24 h

| Compound | IC50 (COVID-19 WT Mpro) | EC50 (SARS-CoV-2 replicon; [2]) [nM] | EC50 (SARS-CoV-2 replicon) [nM] | EC50 [1] [nM] |
| --- | --- | --- | --- | --- |
| CC1(C)[C@@H]2[C@@H](C(=O)N[C@H](C#N)C[C@@H]3CCNC3=O)N(C(=O)[C@@H]3CCCN3C(=O)C(F)(F)F)C[C@@H]21 [Compound 5] | > 30000 nM | > 30000 | – | – |
| CC1(C)[C@@H]2[C@@H](C(=O)N[C@H](C#N)C[C@@H]3CCNC3=O)N(C(=O)[C@@H]3CCN3C(=O)C(F)(F)F)C[C@@H]21 [Compound 6] | 17300 nM | > 30000 | – | – |
| COC(=O)N(C(=O)C(F)(F)F)[C@H](C(=O)N1C[C@H]2[C@@H]([C@H]1C(=O)N[C@H](C#N)C[C@@H]1CCNC1=O)C2(C)C)C(C)(C)C [Compound 8] | > 30000 nM | 3110 | – | – |
| CC1(C)[C@@H]2[C@@H](C(=O)N[C@@H](C[C@@H]3CCNC3=O)C(=O)c3nc4ccccc4s3)N(C(=O)[C@@H]3CCCN3C(=O)C(F)(F)F)C[C@@H]21 [Compound 10] | > 30000 nM | 22700 | – | – |
| CC1(C)[C@@H]2[C@@H](C(=O)N[C@@H](C[C@@H]3CCNC3=O)C(=O)c3nc4ccccc4s3)N(C(=O)[C@@H]3CCN3C(=O)C(F)(F)F)C[C@@H]21 [Compound 11] | 11000 nM | 25500 | – | – |
| CC(C)(C)[C@H](NC(=O)[C@@H](NC(=O)c1cnccn1)C1CCCCC1)C(=O)N1C[C@H]2[C@@H]([C@H]1C(=O)N[C@H](C#N)C[C@@H]1CCNC1=O)C2(C)C [Compound 13] | 66 nM and 256 nM | 1630 | 1920 | 9820 |
| CC(C)(C)[C@H](NC(=O)[C@H](NC(=O)c1cnccn1)C1CCCCC1)C(=O)N1C[C@H]2[C@@H]([C@H]1C(=O)N[C@H](C#N)C[C@@H]1CCNC1=O)C2(C)C [Compound 14] | > 30000 nM | > 30000 | – | – |
| CC(C)(C)[C@H](NC(=O)C(F)(F)F)C(=O)N1C[C@H]2[C@@H]([C@H]1C(=O)N[C@H](C#N)Cc1cncnc1)C2(C)C [Compound 15] | > 30000 nM | > 30000 | – | – |
| CC(C)(C)OC(=O)N1C2CCC1CC(C(=O)N[C@H](C(=O)N1C[C@H]3[C@@H]([C@H]1C(=O)N[C@H](C#N)C[C@@H]1CCNC1=O)C3(C)C)C(C)(C)C)C2 (some centres unmarked) [Compound 17] | 704 nM | 2640 | – | 7960 |
| CC(C)(C)[C@H](NC(=O)C1CC2CCC(C1)O2)C(=O)N1C[C@H]2[C@@H]([C@H]1C(=O)N[C@H](C#N)C[C@@H]1CCNC1=O)C2(C)C (some centres unmarked) [Compound 19] | 3710 nM | > 30000 | – | > 30000 |
| CC(C)(C)[C@H](NC(=O)C1COC1)C(=O)N1C[C@H]2[C@@H]([C@H]1C(=O)N[C@H](C#N)C[C@@H]1CCNC1=O)C2(C)C [Compound 21] | 161 nM | > 30000 | – | > 30000 |
| CC(C)(C)[C@H](NC(=O)c1ccc2[nH]ncc2c1)C(=O)N1C[C@H]2[C@@H]([C@H]1C(=O)N[C@H](C#N)C[C@@H]1CCNC1=O)C2(C)C [Compound 24] | 143 nM | 3610 | – | 23400 |
| COC(C)(C)C(=O)N[C@H](C(=O)N1C[C@H]2[C@@H]([C@H]1C(=O)N[C@H](C#N)C[C@@H]1CCNC1=O)C2(C)C)C(C)(C)C [Compound 25] | 161 nM | 2340 | – | 2470 |
| CC(C)(C)[C@H](NC(=O)c1cc2ccccc2s1)C(=O)N1C[C@H]2[C@@H]([C@H]1C(=O)N[C@H](C#N)C[C@@H]1CCNC1=O)C2(C)C [Compound 26] | 410 nM | 2560 | – | 5860 |
| CC(C)(C)[C@H](NC(=O)c1cc2ccccc2[nH]1)C(=O)N1C[C@H]2[C@@H]([C@H]1C(=O)N[C@H](C#N)C[C@@H]1CCNC1=O)C2(C)C [Compound 28] | 728 nM | 2050 | – | 6120 |
| CC(C)(C)[C@H](NC(=O)c1ccc2cncn2c1)C(=O)N1C[C@H]2[C@@H]([C@H]1C(=O)N[C@H](C#N)C[C@@H]1CCNC1=O)C2(C)C [Compound 29] | 405 nM | > 30000 | – | > 30000 |
| CC(C)(C)[C@H](NC(=O)c1c(F)c(F)c(F)c(F)c1F)C(=O)N1C[C@H]2[C@@H]([C@H]1C(=O)N[C@H](C#N)C[C@@H]1CCNC1=O)C2(C)C [Compound 30] | 714 nM | 3560 | – | 1800 |
| CC(C)(C)[C@H](NC(=O)c1cn2ccccc2n1)C(=O)N1C[C@H]2[C@@H]([C@H]1C(=O)N[C@H](C#N)C[C@@H]1CCNC1=O)C2(C)C [Compound 31] | 2750 nM | 22200 | – | > 30000 |
| CC(C)(C)OC(=O)N1c2ccccc2CC1C(=O)N[C@H](C(=O)N1C[C@H]2[C@@H]([C@H]1C(=O)N[C@H](C#N)C[C@@H]1CCNC1=O)C2(C)C)C(C)(C)C (some centres unmarked) [Compound 36] | 617 nM | 2750 | – | 15600 |

| Compound | IC50 (COVID-19 WT Mpro) | EC50 (SARS-CoV-2 replicon; [2]) [nM] | EC50 (SARS-CoV-2 replicon) [nM] | EC50 [1] [nM] |
| --- | --- | --- | --- | --- |
| CC(C)(C)OC(=O)N1[C@@H](C(=O)N[C@H](C(=O)N2C[C@H]3[C@@H]([C@H]2C(=O)N[C@H](C#N)C[C@@H]2CCNC2=O)C3(C)C)C(C)(C)C)C[C@H]2CCCC[C@H]21 [Compound 37] | 2150 nM | 4490 | – | > 30000 |
| CN(C(=O)OC(C)(C)C)C(C)(C)C(=O)N[C@H](C(=O)N1C[C@H]2[C@@H]([C@H]1C(=O)N[C@H](C#N)C[C@@H]1CCNC1=O)C2(C)C)C(C)(C)C [Compound 38] | 9820 nM | > 30000 | – | > 30000 |
| CN(C)C(=O)N[C@H](C(=O)N1C[C@H]2[C@@H]([C@H]1C(=O)N[C@H](C#N)C[C@@H]1CCNC1=O)C2(C)C)C(C)(C)C [Compound 39, (1R,2S,5S)—N—((S)-1-cyano-2-((S)-2-oxopyrrolidin-3-yl)ethyl)-3-((S)-2-(3,3-dimethylureido)-3,3-dimethylbutanoyl)-6,6-dimethyl-3-azabicyclo[3.1.0]hexane-2-carboxamide] | 421 nM | 17600 | – | > 30000 |
| CC(C)(C)[C@H](NC(=O)c1ccc2cc[nH]c2c1)C(=O)N1C[C@H]2[C@@H]([C@H]1C(=O)N[C@H](C#N)C[C@@H]1CCNC1=O)C2(C)C [Compound 42] | 121 nM | 2480 | – | – |
| CC(C)(C)[C@H](NC(=S)NC1CCCCC1)C(=O)N1C[C@H]2[C@@H]([C@H]1C(=O)N[C@H](C#N)C[C@@H]1CCNC1=O)C2(C)C [Compound 43] | 1230 nM | 3210 | – | – |
| CC(C)(C)[C@H](NC(=O)C1Cc2ccccc2N1)C(=O)N1C[C@H]2[C@@H]([C@H]1C(=O)N[C@H](C#N)C[C@@H]1CCNC1=O)C2(C)C (some centres unmarked) [Compound 45] | 385 nM | 960 | – | – |
| CC(C)(C)[C@H](NC(=O)[C@H]1C[C@H]2CCCC[C@H]2N1)C(=O)N1C[C@H]2[C@@H]([C@H]1C(=O)N[C@H](C#N)C[C@@H]1CCNC1=O)C2(C)C [Compound 46] | 7500 nM | > 30000 | – | – |
| CC(C)(C)[C@H](NC(=O)N1CCOCC1)C(=O)N1C[C@H]2[C@@H]([C@H]1C(=O)N[C@H](C#N)C[C@@H]1CCNC1=O)C2(C)C [Compound 48] | 224 nM | 22000 | – | – |
| CC1(C)[C@@H]2[C@@H](C(=O)N[C@H](C#N)C[C@@H]3CCNC3=O)N(C(=O)[C@@H](NC(=O)C(F)(F)F)C34CC(C3)C4)C[C@@H]21 [Compound 50] | 60 nM | 270 | – | – |
| CC(C)(C)[C@H](NC(=O)c1cc2ccccn2n1)C(=O)N1C[C@H]2[C@@H]([C@H]1C(=O)N[C@H](C#N)C[C@@H]1CCNC1=O)C2(C)C [Compound 51] | 9400 nM | 9540 | – | – |
| CC(C)(C)[C@H](NC(=O)N1CCCCC1)C(=O)N1C[C@H]2[C@@H]([C@H]1C(=O)N[C@H](C#N)C[C@@H]1CCNC1=O)C2(C)C [Compound 55] | 1050 nM | 6040 | – | – |
| CC(C)(C)OC(=O)N1CCCC1(C)C(=O)N[C@H](C(=O)N1C[C@H]2[C@@H]([C@H]1C(=O)N[C@H](C#N)C[C@@H]1CCNC1=O)C2(C)C)C(C)(C)C (some centres unmarked) [Compound 57] | 57 nM | 400 | – | – |
| CC(C)=C(Cl)C(=O)N[C@H](C(=O)N1C[C@H]2[C@@H]([C@H]1C(=O)N[C@H](C#N)C[C@@H]1CCNC1=O)C2(C)C)C(C)(C)C [Compound 160] | – | 160 | – | 193 |
| CC(C)(C)[C@H](NC(=O)CC(F)(F)F)C(=O)N1C[C@H]2[C@@H]([C@H]1C(=O)N[C@H](C#N)C[C@@H]1CCNC1=O)C2(C)C [Compound 161] | – | 180 | – | 585 |
| CC(C)(C)[C@H](NC(=O)/C(F)=C(\F)C(F)(C(F)(F)F)C(F)(F)F)C(=O)N1C[C@H]2[C@@H]([C@H]1C(=O)N[C@H](C#N)C[C@@H]1CCNC1=O)C2(C)C [Compound 163] | – | > 10000 | – | 4630 |
| Cc1ccc(S(=O)(=O)N(C(=O)C(F)(F)F)[C@H](C(=O)N2C[C@H]3[C@@H]([C@H]2C(=O)N[C@H](C#N)C[C@@H]2CCNC2=O)C3(C)C)C(C)(C)C)cc1 [Compound 167] | – | 20 | – | 120 |
| Cc1cc(S(=O)(=O)N[C@H](C(=O)N2C[C@H]3[C@@H]([C@H]2C(=O)N[C@H](C#N)C[C@@H]2CCNC2=O)C3(C)C)C(C)(C)C)sc1Cl [Compound 168] | – | 41 | – | 116 |
| Cc1cc(S(=O)(=O)N[C@H](C(=O)N2C[C@H]3[C@@H]([C@H]2C(=O)N[C@H](C#N)C[C@@H]2CCNC2=O)C3(C)C)C(C)(C)C)sc1C [Compound 169] | – | 37 | – | 163 |
| CCc1ccc(S(=O)(=O)N[C@H](C(=O)N2C[C@H]3[C@@H]([C@H]2C(=O)N[C@H](C#N)C[C@@H]2CCNC2=O)C3(C)C)C(C)(C)C)s1 [Compound 170] | – | 38 | – | 140 |
